# Data as given in ChEMBL document CHEMBL4342418, “1,2,3-Triazole-containing hybrids as potential anticancer agents: Current developments, action mechanisms and structure-activity relationships” (Eur J Med Chem, 2019).
# Columns and labels:
# Assay type in all cases: functional, cell-based
# A549 [1] = experiment: Antiproliferative activity against human A549 cells assessed as reduction in cell viability after 24 hrs by MTT assay; conditions: A549, 24 h
# MDA-MB-231 = experiment: Antiproliferative activity against human MDA-MB-231 cells assessed as reduction in cell viability after 24 hrs by MTT assay; conditions: MDA-MB-231, 24 h
# K562 = experiment: Antiproliferative activity against human K562 cells assessed as reduction in cell viability after 24 hrs by MTT assay; conditions: K562, 24 h
# COLO 205 = experiment: Antiproliferative activity against human COLO205 cells assessed as reduction in cell viability after 24 hrs by MTT assay; conditions: COLO 205, 24 h
# PC-3 = experiment: Antiproliferative activity against human PC3 cells assessed as reduction in cell viability after 24 hrs by MTT assay; conditions: PC-3, 24 h
# A-431 = experiment: Antiproliferative activity against human A431 cells assessed as reduction in cell viability after 24 hrs by MTT assay; conditions: A-431, 24 h
# HeLa = experiment: Antiproliferative activity against human HeLa cells by MTT assay
# MCF7 = experiment: cells; conditions: Homo sapiens
# Description: Antiproliferative activity against human MCF7 cells by MTT assay
# HL-60 = experiment: Antiproliferative activity against human HL60 cells by MTT assay
# P388 = experiment: Antiproliferative activity against mouse P388 cells by MTT assay
# Lu1 = experiment: Antiproliferative activity against human Lu1 cells by MTT assay
# A549 [2] = experiment: cells; conditions: Homo sapiens
# Description: Antiproliferative activity against human A549 cells by MTT assay
Structure (SMILES),IC50 (A549 [1]),IC50 (MDA-MB-231),IC50 (PC-3),IC50 (MCF7) [µM],IC50 (HL-60) [µM],IC50 (P388) [µM],IC50 (Lu1) [µM],other results
C[C@H]1[C@@H](OCc2cn(-c3ccc(O)cc3)nn2)O[C@@H]2O[C@@]3(C)CC[C@H]4[C@H](C)CC[C@@H]1[C@@]24OO3,4.06 to 36.6 µM,4.06 to 36.6 µM,4.06 to 36.6 µM,,,,,IC50 (K562): 4.06 to 36.6 µM; IC50 (COLO 205): 4.06 to 36.6 µM; IC50 (A-431): 4.06 to 36.6 µM
COc1ccc(-c2ccc3c(c2)OCC(=O)N3Cc2cn(-c3cc(Cl)cc(Cl)c3)nn2)cc1,,,,21.8,,,,IC50 (HeLa): 19.5 µM
CC(=O)c1ccc(-n2cc(CO[C@H]3O[C@@H]4O[C@@]5(C)O[C@]46[C@@H](CC[C@@H](C)[C@@H]6C[C@H]5O)[C@H]3C)nn2)cc1,4.06 to 89.9 µM,4.06 to 89.9 µM,4.06 to 89.9 µM,,,,,IC50 (K562): 4.06 to 89.9 µM; IC50 (COLO 205): 4.06 to 89.9 µM; IC50 (A-431): 4.06 to 89.9 µM
CC1CCCCN1C(=O)c1cccc(-n2cc(CO[C@H]3O[C@@H]4O[C@@]5(C)CC[C@H]6[C@H](C)CC[C@@H]([C@H]3C)[C@@]46OO5)nn2)c1 (some centres undefined),,,,2.5 to 176,2.5 to 176,2.5 to 176,2.5 to 176,
CC(=O)c1ccccc1-n1cc(CO[C@H]2O[C@@H]3O[C@@]4(C)O[C@]35[C@@H](CC[C@@H](C)[C@@H]5C[C@H]4O)[C@H]2C)nn1,4.06 to 89.9 µM,4.06 to 89.9 µM,4.06 to 89.9 µM,,,,,IC50 (K562): 4.06 to 89.9 µM; IC50 (COLO 205): 4.06 to 89.9 µM; IC50 (A-431): 4.06 to 89.9 µM
C[C@H]1[C@@H](OCc2cn(-c3cccc(C(=O)N4CCN(c5ccccc5)CC4)c3)nn2)O[C@@H]2O[C@@]3(C)CC[C@H]4[C@H](C)CC[C@@H]1[C@@]24OO3,,,,2.5 to 176,2.5 to 176,2.5 to 176,2.5 to 176,
COc1cc(-c2ccccc2Cl)cc(-c2nnn(Cc3ccccc3)c2C)n1,42.6 µg/mL,42.3 µg/mL,28.2 µg/mL,,,,,
CC1CCCCN1C(=O)c1ccc(-n2cc(CO[C@H]3O[C@@H]4O[C@@]5(C)CC[C@H]6[C@H](C)CC[C@@H]([C@H]3C)[C@@]46OO5)nn2)cc1 (some centres undefined),,,,2.5 to 176,2.5 to 176,2.5 to 176,2.5 to 176,
C[C@H]1[C@@H](OCc2cn(-c3cccc(C(=O)N4CCOCC4)c3)nn2)O[C@@H]2O[C@@]3(C)CC[C@H]4[C@H](C)CC[C@@H]1[C@@]24OO3,,,,2.5 to 176,2.5 to 176,2.5 to 176,2.5 to 176,
CO[C@H]1C[C@@H]2CC[C@@H](C)[C@@](O)(O2)C(=O)C(=O)N2CCCC[C@H]2C(=O)O[C@H]([C@H](C)C[C@@H]2CC[C@@H](O)[C@H](OC)C2)CC(=O)[C@H](C)/C=C(\C)[C@@H](O)[C@@H](OC)C(=O)[C@H](C)C[C@H](C)/C=C/C=C/C=C/1C [SIROLIMUS],,,,18.7 to 35.1,,,,IC50 (A549 [2]): 18.7 to 35.1 µM
C[C@H]1[C@@H](OCc2cn(-c3cccc(C(=O)N4CCCCC4)c3)nn2)O[C@@H]2O[C@@]3(C)CC[C@H]4[C@H](C)CC[C@@H]1[C@@]24OO3,,,,2.5 to 176,2.5 to 176,2.5 to 176,2.5 to 176,
COc1ccc(-n2cc(Cn3c(=O)sc4cc(Br)ccc43)nn2)cc1,,,,17.5,,,,IC50 (HeLa): 12.2 µM
C[C@H]1[C@@H](OCc2cn(-c3ccc(C(=O)N4CCN(c5ccccc5)CC4)cc3)nn2)O[C@@H]2O[C@@]3(C)CC[C@H]4[C@H](C)CC[C@@H]1[C@@]24OO3,,,,2.5 to 176,2.5 to 176,2.5 to 176,2.5 to 176,
C[C@H]1[C@@H](OCc2cn(-c3ccc(C(=O)N4CCCC4)cc3)nn2)O[C@@H]2O[C@@]3(C)CC[C@H]4[C@H](C)CC[C@@H]1[C@@]24OO3,,,,2.5 to 176,2.5 to 176,2.5 to 176,2.5 to 176,
C[C@H]1[C@@H](OCc2cn(-c3ccc(C(=O)N4CCOCC4)cc3)nn2)O[C@@H]2O[C@@]3(C)CC[C@H]4[C@H](C)CC[C@@H]1[C@@]24OO3,,,,2.5 to 176,2.5 to 176,2.5 to 176,2.5 to 176,
C[C@H]1[C@@H](OCc2cn(-c3cccc(C(=O)N4CCN(C)CC4)c3)nn2)O[C@@H]2O[C@@]3(C)CC[C@H]4[C@H](C)CC[C@@H]1[C@@]24OO3,,,,2.5 to 176,2.5 to 176,2.5 to 176,2.5 to 176,
CCC1(CCn2cc(COc3ccc(C)cc3)nn2)OCCc2c1[nH]c1ccccc21 (centres undefined),,,,,,,,IC50 (A549 [2]): 3.65 µM
C[C@H]1[C@@H](OCc2cn(-c3ccc(C(=O)N4CCN(C)CC4)cc3)nn2)O[C@@H]2O[C@@]3(C)CC[C@H]4[C@H](C)CC[C@@H]1[C@@]24OO3,,,,2.5 to 176,2.5 to 176,2.5 to 176,2.5 to 176,

Structure (SMILES),IC50 (A549 [1]),IC50 (MDA-MB-231),IC50 (PC-3),IC50 (MCF7) [µM],IC50 (HL-60) [µM],IC50 (P388) [µM],IC50 (Lu1) [µM],other results
C[C@@H]1CC[C@H]2[C@@H](C)C(=O)O[C@@H]3O[C@@]4(C)CC[C@@H]1[C@]32OO4 [ARTEMISININ],39 to 68.8 µM,39 to 68.8 µM,39 to 68.8 µM,,,,,IC50 (K562): 39 to 68.8 µM; IC50 (COLO 205): 39 to 68.8 µM; IC50 (A-431): 39 to 68.8 µM
CCN(CC)C(=O)c1ccc(-n2cc(CO[C@H]3O[C@@H]4O[C@@]5(C)CC[C@H]6[C@H](C)CC[C@@H]([C@H]3C)[C@@]46OO5)nn2)cc1,,,,2.5 to 176,2.5 to 176,2.5 to 176,2.5 to 176,
COc1ccc(-n2cc(CO[C@H]3O[C@@H]4O[C@@]5(C)CC[C@H]6[C@H](C)CC[C@@H]([C@H]3C)[C@@]46OO5)nn2)cc1,4.06 to 89.9 µM,4.06 to 89.9 µM,4.06 to 89.9 µM,,,,,IC50 (K562): 4.06 to 89.9 µM; IC50 (COLO 205): 4.06 to 89.9 µM; IC50 (A-431): 4.06 to 89.9 µM
CC(=O)c1ccccc1-n1cc(CO[C@H]2O[C@@H]3O[C@@]4(C)CC[C@H]5[C@H](C)CC[C@@H]([C@H]2C)[C@@]35OO4)nn1,4.06 to 89.9 µM,4.06 to 89.9 µM,4.06 to 89.9 µM,,,,,IC50 (K562): 4.06 to 89.9 µM; IC50 (COLO 205): 4.06 to 89.9 µM; IC50 (A-431): 4.06 to 89.9 µM
C[C@@H]1CC[C@H]2C[C@@H](OCc3cn(-c4ccnc5cc(Cl)ccc45)nn3)O[C@@H]3O[C@@]4(C)CC[C@@H]1[C@@]23OO4,,,,5.7 to 19.5,5.7 to 19.5,5.7 to 19.5,5.7 to 19.5,
C[C@H]1[C@@H](OCc2cn(-c3ccc(C#N)cc3)nn2)O[C@@H]2O[C@@]3(C)CC[C@H]4[C@H](C)CC[C@@H]1[C@@]24OO3,4.06 to 89.9 µM,4.06 to 89.9 µM,4.06 to 89.9 µM,,,,,IC50 (K562): 4.06 to 89.9 µM; IC50 (COLO 205): 4.06 to 89.9 µM; IC50 (A-431): 4.06 to 89.9 µM
CC[C@H]1OC(=O)[C@H](C)[C@@H](O[C@H]2C[C@@](C)(OC)[C@@](C)(CN(C)Cc3ccc(-c4cn(CCCCCCC(=O)NO)nn4)cc3)[C@H](C)O2)[C@H](C)[C@@H](O)[C@](C)(OC)C[C@@H](C)C(=O)[C@H](C)[C@@H](O)[C@]1(C)O,,,,0.69,,,,IC50 (A549 [2]): 0.99 µM
CCC1(CCn2cc(COc3ccccc3)nn2)OCCc2c1[nH]c1ccccc21 (centres undefined),,,,,,,,IC50 (A549 [2]): 3.29 µM
C[C@H]1[C@@H](OCc2cn(-c3ccc([N+](=O)[O-])cc3)nn2)O[C@@H]2O[C@@]3(C)CC[C@H]4[C@H](C)CC[C@@H]1[C@@]24OO3,4.06 to 89.9 µM,4.06 to 89.9 µM,4.06 to 89.9 µM,,,,,IC50 (K562): 4.06 to 89.9 µM; IC50 (COLO 205): 4.06 to 89.9 µM; IC50 (A-431): 4.06 to 89.9 µM
CC(=O)c1cccc(-n2cc(CO[C@H]3O[C@@H]4O[C@@]5(C)CC[C@H]6[C@H](C)CC[C@@H]([C@H]3C)[C@@]46OO5)nn2)c1,4.06 to 89.9 µM,4.06 to 89.9 µM,4.06 to 89.9 µM,,,,,IC50 (K562): 4.06 to 89.9 µM; IC50 (COLO 205): 4.06 to 89.9 µM; IC50 (A-431): 4.06 to 89.9 µM
CC1CCN(C(=O)c2cccc(-n3cc(CO[C@H]4O[C@@H]5O[C@@]6(C)CC[C@H]7[C@H](C)CC[C@@H]([C@H]4C)[C@@]57OO6)nn3)c2)CC1,,,,2.5 to 176,2.5 to 176,2.5 to 176,2.5 to 176,
CC(=O)c1ccc(-n2cc(CO[C@H]3O[C@@H]4O[C@@]5(C)CC[C@H]6[C@H](C)CC[C@@H]([C@H]3C)[C@@]46OO5)nn2)cc1,4.06 to 89.9 µM,4.06 to 89.9 µM,4.06 to 89.9 µM,,,,,IC50 (K562): 4.06 to 89.9 µM; IC50 (COLO 205): 4.06 to 89.9 µM; IC50 (A-431): 4.06 to 89.9 µM
CCN1CCN(C(=O)c2cccc(-n3cc(CO[C@H]4O[C@@H]5O[C@@]6(C)CC[C@H]7[C@H](C)CC[C@@H]([C@H]4C)[C@@]57OO6)nn3)c2)CC1,,,,2.5 to 176,2.5 to 176,2.5 to 176,2.5 to 176,
C[C@H]1[C@@H](OCc2cn(-c3ccc(C(=O)N4CCCCC4)cc3)nn2)O[C@@H]2O[C@@]3(C)CC[C@H]4[C@H](C)CC[C@@H]1[C@@]24OO3,,,,2.5 to 176,2.5 to 176,2.5 to 176,2.5 to 176,
CCN(CC)C(=O)c1cccc(-n2cc(CO[C@H]3O[C@@H]4O[C@@]5(C)CC[C@H]6[C@H](C)CC[C@@H]([C@H]3C)[C@@]46OO5)nn2)c1,,,,2.5 to 176,2.5 to 176,2.5 to 176,2.5 to 176,
C[C@H]1[C@@H](OCc2cn(-c3cccc(C(=O)N4CCCC4)c3)nn2)O[C@@H]2O[C@@]3(C)CC[C@H]4[C@H](C)CC[C@@H]1[C@@]24OO3,,,,2.5 to 176,2.5 to 176,2.5 to 176,2.5 to 176,
CC1CCN(C(=O)c2ccc(-n3cc(CO[C@H]4O[C@@H]5O[C@@]6(C)CC[C@H]7[C@H](C)CC[C@@H]([C@H]4C)[C@@]57OO6)nn3)cc2)CC1,,,,2.5 to 4.7,2.5 to 4.7,2.5 to 4.7,2.5 to 4.7,
CCN1CCN(C(=O)c2ccc(-n3cc(CO[C@H]4O[C@@H]5O[C@@]6(C)CC[C@H]7[C@H](C)CC[C@@H]([C@H]4C)[C@@]57OO6)nn3)cc2)CC1,,,,2.5 to 176,2.5 to 176,2.5 to 176,2.5 to 176,
